Tests used:
[1] = target: mouse E-cadherin (CDH1) (mouse) (UniProt P09803); assay: flow cytometry, undifferentiated mouse R1 ES cells, biotinylated anti-CDH1 antibody then PE-conjugated TotalSeq streptavidin
[2] = target: mouse E-cadherin (CDH1) (mouse) (UniProt P09803); assay: flow cytometry, differentiated R1 ES cells (only a part of them expresses CDH1), biotinylated anti-CDH1 antibody then PE-conjugated TotalSeq streptavidin
[3] = system: undifferentiated mouse ES cells (R1 line); assay: Flow cytometry of labeling efficiency (PE-positive cells), USB method vs Ab method; type: cell-based; conditions: TotalSeq PE streptavidin detection
Procedure: Single cells containing 0.5-2×10^6 […] CELLs prepared in “3. […] After incubation on ice, 3 mL ice-cold PBS containing 3% FBS was added to the reaction, and the cells were centrifuged at 4° C., 300 g for 5 minutes. The cells were further washed twice with Cell Staining Buffer (BioLegend, Inc., 420201), and then kept on ice until barcoded oligo DNA binding in the next step. Single cells containing 0.5-2×10^6 […] CELLs prepared in “3. […] An ice-cold primary antibody solution (0.05 μg/mL biotinylated CDC324 [E-cadherin] rat monoclonal antibody [Thermo Fisher ScientificTM, 13-3249-82]) was mixed with the cell suspension solution, and the cell was incubated on ice for 30 minutes. Next, the cells were washed three times with ice-cold Cell Staining Buffer, and then kept on ice until binding of barcoded DNA. […] The cell suspension solution was filtered through 40 μm cell strainer, the same number of cells from each sample was gathered in a single tube and used for cell trapping and cDNA synthesis using a BD RhapsodyTM apparatus. First, by the same method as in the above 1-3, SINGLE CELL suspension solutions of undifferentiated ES cells and differentiated ES cells were prepared. […] The stained cells were analyzed by flow cytometry using EC800 Cell Analyzer (Sony Corporation), Cyto FLEX flow cytometer (Beckman Coulter, Inc.), or […] flow cytometer (BD Biosciences). […]

[4] = system: differentiated ES cells (R1, embryoid body formation); assay: as above; type: cell-based, mouse; conditions: TotalSeq PE streptavidin detection
Procedure: After removing the feeder cells, 1×10^4 ES cells were seeded in 100 μL differentiation medium (GMEM supplemented with 15% FBS, 0.11 mg/mL sodium pyruvate, 0.1 mM 2-mercaptoethanol, 1×non-essential amino acid, and 1×GlutaMAX supplement) in a U-bottom 96-well low cell attachment plate (Nunclon Sphera 96-Well U-Shaped-Bottom Microplate; Thermo Fisher ScientificTM, 174925), and cultured for 24 hours. Spheroids made in the plate were transferred to a 90 mm, low cell attachment culture dish (Nunclon Sphera 90 mm dish, 174945), and cultured for further 4 days to form embryoid bodies (EBs). The EBs were washed three times with PBS, dissociated into […] CELLs (group of single cells) using 0.25% trypsin, the cells were seeded on a gelatin-treated culture dish, and cultured for 7 days to induce further differentiation. Single cells containing 0.5-2×10^6 […] CELLs prepared in “3. […] After incubation on ice, 3 mL ice-cold PBS containing 3% FBS was added to the reaction, and the cells were centrifuged at 4° C., 300 g for 5 minutes. The cells were further washed twice with Cell Staining Buffer (BioLegend, Inc., 420201), and then kept on ice until barcoded oligo DNA binding in the next step. […] The stained cells were analyzed by flow cytometry using EC800 Cell Analyzer (Sony Corporation), Cyto FLEX flow cytometer (Beckman Coulter, Inc.), or […] flow cytometer (BD Biosciences). […]

[5] = system: undifferentiated ES cells; assay: Cell viability test (colony formation); type: cell-based, mouse
Procedure: Undifferentiated ES cells were treated with 100 μg/mL S-NHS-biotin (10-fold the concentration used for multiplex scRNA-seq) and TotalSeq® PE streptavidin, and 3×10^3 cells were seeded on a 3.5 cm, gelatin-treated culture dish. Concurrently, the same number of untreated cells were seeded. After 5-day culture, the cells were stained with hematoxylin, and the colony formation ratios of untreated control and treated sample were examined.
A series of experimental operations by the USB method has a possibility to compromise cell states and growth. To examine this possibility, ES cells were treated by the USB method, and seeded on a culture dish to measure colony formation ability (FIG. 7). As a result, even though cells were treated with S-NHS-biotin at a concentration 10-fold the concentration used in the USB method (0.1 mg/mL), the difference of colony formation rates between the control group without labeling and the USB group were not observed. Consequently, the USB method was concluded to not change the cell viability.

[6] = Storage stability of S-NHS-biotin stock solution; type: physicochemical; conditions: stock solution at −80° C.
Procedure: A S-NHS-biotin stock solution was prepared by dissolving EZ-Link sulfo-NHS-biotin (Thermo Fisher Scientific™, 21217) in PBS at a concentration of 10 mg/mL, and dispensed and stored at […] until use.

[7] = system: mouse growth plate chondrocytes; assay: Flow cytometry of labeled growth plate chondrocytes; type: cell-based; conditions: mouse growth plate chondrocytes (FIG. 11)
Procedure: (§1) Specifically, healthy F344 rat lungs were cut into 0.5 mm^2 with razor blade, digested in a Liberase solution [RPMI-1640 (Natalai Tesque)] added with 10% FBS, 10 mM HEPES pH 7.2-7.4, 0.25 mg/ml Liberase™ (F. Hoffmann-La Roche Ltd.), and 2000 U/mL DNase I (Merck KGaA) for 60 minutes at 37° C. to prepare a SINGLE CELL suspension solution. Dead cells were removed by Percoll. Alternatively, growth plate cartilage from proximal tibia was collected from 3-week-old mice and cut finely into 1 to 2 mm pieces. Next, the cut pieces were dispersed into SINGLE CELLs (group of single cells) with Liberse™ (F. Hoffmann-La Roche Ltd.) solution for 120 to 210 minutes while continuously agitating.
(§2) Reagents for cell staining were biotinylated CDC324 (E-cadherin) rat monoclonal antibody (Thermo Fisher Scientific™, 13-3249-82), TotalSeq® PE streptavidin (BioLegend, Inc., 405251), PerCP-Cy5.5 anti-rat CD45 (Bio-Rad Laboratories, Inc., clone OX-1), PE anti-rat CD31 (Bio-Rad Laboratories, Inc., Clone TLD-3A12), streptavidin-APC (BioLegend, Inc., 405207), APC rat anti-mouse CD45 (BD Biosciences, 559864), and PE anti-mouse H-2 antibody (BioLegend, Inc., 125505).
(§3) The stained cells were analyzed by flow cytometry using EC800 Cell Analyzer (Sony Corporation), Cyto FLEX flow cytometer (Beckman Coulter, Inc.), or FACS Arria II flow cytometer (BD Biosciences).

[8] = system: rat lung cells (CD31 positive, CD45 positive, double negative); assay: Flow cytometry of USB labeling of fractionated lung cells (APC-labeled streptavidin); type: cell-based; conditions: CD45 positive and double negative fractions (FIG. 12)
Procedure: as §1, §2, §3

UniProt P09803, sequence (P09803 157-884): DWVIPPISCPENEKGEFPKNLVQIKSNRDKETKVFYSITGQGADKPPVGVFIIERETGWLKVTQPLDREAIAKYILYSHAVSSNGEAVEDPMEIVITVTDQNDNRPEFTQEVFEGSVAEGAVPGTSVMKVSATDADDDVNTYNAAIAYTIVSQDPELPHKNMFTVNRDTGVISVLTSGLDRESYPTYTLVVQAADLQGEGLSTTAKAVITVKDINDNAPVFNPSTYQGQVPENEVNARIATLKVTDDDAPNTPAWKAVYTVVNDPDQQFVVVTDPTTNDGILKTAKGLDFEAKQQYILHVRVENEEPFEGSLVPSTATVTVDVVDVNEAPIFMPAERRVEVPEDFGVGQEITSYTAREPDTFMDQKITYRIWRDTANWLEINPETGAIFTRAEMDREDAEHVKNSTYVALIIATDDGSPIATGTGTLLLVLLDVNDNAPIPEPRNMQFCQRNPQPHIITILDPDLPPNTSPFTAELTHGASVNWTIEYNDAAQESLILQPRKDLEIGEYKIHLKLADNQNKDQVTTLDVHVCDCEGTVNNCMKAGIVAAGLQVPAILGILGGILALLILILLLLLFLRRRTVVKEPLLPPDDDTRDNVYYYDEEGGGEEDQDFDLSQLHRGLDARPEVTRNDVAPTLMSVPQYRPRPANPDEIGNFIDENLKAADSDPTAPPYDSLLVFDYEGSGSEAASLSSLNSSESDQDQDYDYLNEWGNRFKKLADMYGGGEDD

Substance	percent PE-positive cells [1] [%]	percent PE-positive cells [2] [%]	percentage of PE-positive cells [3] [%]	percentage of PE-positive cells [4] [%]	difference of colony formation rates between the control group without labeling and the USB group ([5]; S-NHS-biotin 0.1 mg/mL (10-fold the concentration used in the USB method), 5-day culture)	effect on viability of undifferentiated ES cells ([5]; S-NHS-biotin treated vs control untreated cells (FIG. 7))	time stock solution is stable [6]	labeling/staining of chondrocytes [7]	labeling of fractionated lung cells [8]
biotinylated CDC324 [E-cadherin] rat monoclonal antibody [Thermo Fisher Scientific, 13-3249-82]	87.8	9.9	–	–	–	–	–	–	–
sulfo-N-hydroxysuccinimide-biotin [S-NHS-biotin]	–	–	99.6	96.4	not observed	does not affect the viability	more than 1 year	efficiently labeled	All fractionated cells were found to have been labeled

From patent US20240384344A1, “METHOD FOR LABELING CELLS” (RIKEN, priority 2022, published 2024)
